We go through eight molecules from patent US9353061B2, “3,5,N-trihydroxy-alkanamide and derivatives: method for making same and use thereof” (Academia Sinica, priority 2012, dated 2016).

In series [1] the target is HMG-CoA reductase (HMGR) (Homo sapiens (Human), UniProt P04035). The series can be described thus: HMG-CoA reductase activity assay (NADPH consumption, Sigma kit). The settings on record: for HMGR inhibition (in words): enzyme-based; for IC50: human recombinant protein. It counts as biochemical. As to the method: (§1) The HMGR activity was performed using HMG-CoA reductase assay kit from Sigma-Aldrich with the human recombinant protein or 100 μg total cell lysates from A549 cells. […] HMGR activity under defined assay conditions, containing NADPH and HMG-CoA substrate in a final volume of 0.2 mL of 100 mM potassium phosphatate buffer (120 mM KCl, 1 mM EDTA, 5 mM DTT, pH 7.4), were initiated in the presence or absence (control) of test compounds dissolved in dimethylsulfoxide (DMSO). The rates of NADPH consumption were monitored every 20 seconds, for up to 10 minutes, by spectrophotometer at 37° C. and 340 nm. The HMGR activity was calculated as a percentage of activity compared with the control group at 5 min. The IC50 values were calculated from software SigmaPlot.
Sequence of HMG-CoA reductase (HMGR) (P04035 426-888): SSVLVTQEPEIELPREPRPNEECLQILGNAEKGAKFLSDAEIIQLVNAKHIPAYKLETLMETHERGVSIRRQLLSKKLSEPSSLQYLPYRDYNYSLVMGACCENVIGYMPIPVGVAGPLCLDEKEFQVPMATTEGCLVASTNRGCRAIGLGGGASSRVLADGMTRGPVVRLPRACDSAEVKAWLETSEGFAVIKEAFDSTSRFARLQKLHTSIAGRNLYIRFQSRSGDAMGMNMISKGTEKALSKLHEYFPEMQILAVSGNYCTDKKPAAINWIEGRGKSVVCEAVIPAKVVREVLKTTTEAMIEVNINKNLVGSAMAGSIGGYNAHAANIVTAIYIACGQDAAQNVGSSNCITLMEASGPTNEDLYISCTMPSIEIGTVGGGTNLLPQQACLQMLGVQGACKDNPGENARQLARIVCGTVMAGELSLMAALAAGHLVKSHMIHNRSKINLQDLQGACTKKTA
(§2) HDAC fluorometric activity assay was performed using Fluor-de-Lys as the substrate (BIOMOL, Plymouth Meeting, Pa., USA), and HMGR inhibition was evaluated by the […].

Series [2] has as its target HDAC1 (Homo sapiens (Human), UniProt Q13547). In words: HDAC fluorimetric activity assay (Fluor-de-Lys). As to conditions: recombinant HDAC1. The format is biochemical. The procedure:
(§3) The HDAC activity was performed using the HDAC fluorescent activity assay kit (BIOMOL, Plymouth Meeting, Pa., USA) according to the manufacturer's instructions. Briefly, recombinant proteins of HDAC1 or HDAC6 were incubated with test compounds, and HDAC reaction was initiated by addition of Fluor-de-Lys substrate. Samples were incubated for 10 min at room temperature, followed by adding developer to stop the reaction. Fluorescence was measured by fluorometric reader with excitation at 360 nm and emission at 460 nm. The HDAC activity was expressed as arbitrary fluorescence units (AFU). The HDAC activity was calculated as a percentage of activity compared with the control group. The half maximal inhibitory concentration (IC50) values for the test compounds were calculated from software SigmaPlot.
as §2

Series [3] addresses HDAC6 (Homo sapiens (Human), UniProt Q9UBN7). In words: HDAC fluorimetric activity assay (Fluor-de-Lys). It counts as biochemical. The settings on record: recombinant HDAC6. As to the method:
as §3, §2

The target in series [4] is HDAC2 (Homo sapiens (Human), UniProt Q92769). The series can be described thus: HDAC fluorimetric activity assay (Fluor-de-Lys). The format is biochemical.
Sequence of HDAC2 (Q92769 whole entry): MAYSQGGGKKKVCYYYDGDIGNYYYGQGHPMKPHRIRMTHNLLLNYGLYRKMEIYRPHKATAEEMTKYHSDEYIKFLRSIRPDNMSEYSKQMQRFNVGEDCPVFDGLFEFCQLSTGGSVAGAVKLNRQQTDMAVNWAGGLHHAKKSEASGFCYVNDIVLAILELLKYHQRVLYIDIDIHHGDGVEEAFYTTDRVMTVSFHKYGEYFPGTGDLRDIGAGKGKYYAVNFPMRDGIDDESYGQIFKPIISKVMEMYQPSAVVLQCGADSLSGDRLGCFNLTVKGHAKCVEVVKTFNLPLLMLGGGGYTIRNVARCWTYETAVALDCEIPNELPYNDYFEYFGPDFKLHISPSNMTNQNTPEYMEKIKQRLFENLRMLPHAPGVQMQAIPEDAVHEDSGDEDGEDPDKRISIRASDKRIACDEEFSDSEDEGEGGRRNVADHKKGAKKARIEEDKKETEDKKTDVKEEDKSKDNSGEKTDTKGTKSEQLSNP
Series [5] concerns MEF normal mouse fibroblast cells. The series can be described thus: cells. It counts as cell-based. As to conditions: for cytotoxicity on MEF normal cells (in words) / IC50: 72 h; for cytotoxicity on MEF normal cells (in words): MTT, FIG. 4C/4D; for toxicity to normal cells at 100 μM: MEF; for IC50: MTT assay; for SI A549/MEF (selectivity index): ratio of IC50 values, cancer cell and normal cell.
Description: (§4) The cell viability was measured by MTT assay.
(§5) A549 human lung carcinoma cells from American Type Culture Collection (ATCC) were cultured in Dulbecco's Modified Eagle Medium (DMEM). […] All mediums were supplemented with 10% fetal bovine serum (FBS), 100 U/mL penicillin G and 100 mg/mL streptomycin sulfate. Cells were maintained in a humidified incubator containing 5% CO2 in air. Cells were subcultured by trypsinization in laminar flow when grew about 80% in the culture dishes.
(§6) A549 cells were seeded at 3000 cells/well in 96-well plates and maintained for 14-16 hours. Cells were treated with dimethylsulfoxide DMSO or test compounds in varied concentrations for 72 h. Cells were then washed with PBS twice, added a medium containing 3-(4,5-dimethylthiazol-2-yl)-2,5-diphenyltetrazolium bromide (MTT) at a final concentration of 0.5 mg/mL, and incubated for 4 h at 37° C. in a humidified incubator containing 5% CO2 in air. Cells having functional succinate dehydrogenase of mitochondria would convert MTT to formazan. Then, the medium was replaced with 100 μL of DMSO for 30 min at room temperature, and the 96-well plate was read by an ELISA reader at 550 nm to get the absorbance density values. The IC50 values of death cell lines were calculated accordingly.

Series [6] deals with HS68 normal human fibroblast cells. The series can be described thus: cells. It counts as cell-based. As to conditions: for cytotoxicity on HS68 normal cells (in words) / IC50: 72 h; for cytotoxicity on HS68 normal cells (in words): MTT, FIG. 4B/4D; for toxicity to normal cells at 100 μM: HS68, 100 μM; for IC50: MTT assay.
Description: as §4, §5, §6
The subject of series [7] is acetyl-histone H3 and acetyl-tubulin in A549 lung cancer cells. In words: Western blot of acetyl-histone H3 and acetyl-tubulin. The format is cell-based, human. The settings on record: dose-dependent, FIG. 2. The procedure: FIG. 2 is a photo showing the effect of test compounds on acetylation of histone H3 and tubulin in A549 lung cancer cell lines. […] A549 cells were treated with the indicated doses of test compounds. Total cell lysates were prepared and subjected to SDS-PAGE using adequate percentage of polyacrylamide gels. Immunoblotting was performed using specific antibodies to evaluate the expression of different proteins.
Following treatment with test compounds, cells were lysed on ice. Total cell lysates were centrifuged at 13,000 rpm for 15 min at 4° C., and then subjected to SDS-PAGE using adequate percentage polyacrylamide gels. Immunoblotting was performed using specific antibodies to evaluate the expression of different proteins.
A549 lung cancer cells were treated with the test compound, and the expression of acetyl-histone H3 and acetyl-tubulin were analyzed by SDS-PAGE using immunoblotting.

For series [8], the target named is HMG-CoA reductase in A549 lung cancer cells (Homo sapiens (Human), UniProt P04035). The series can be described thus: Cell-based assay of HMGR inhibition (cell lysates). As to conditions: A549 cells treated 24 hours, FIG. 3. As to the method: as §1
Sequence of HMG-CoA reductase in A549 lung cancer cells (P04035 whole entry): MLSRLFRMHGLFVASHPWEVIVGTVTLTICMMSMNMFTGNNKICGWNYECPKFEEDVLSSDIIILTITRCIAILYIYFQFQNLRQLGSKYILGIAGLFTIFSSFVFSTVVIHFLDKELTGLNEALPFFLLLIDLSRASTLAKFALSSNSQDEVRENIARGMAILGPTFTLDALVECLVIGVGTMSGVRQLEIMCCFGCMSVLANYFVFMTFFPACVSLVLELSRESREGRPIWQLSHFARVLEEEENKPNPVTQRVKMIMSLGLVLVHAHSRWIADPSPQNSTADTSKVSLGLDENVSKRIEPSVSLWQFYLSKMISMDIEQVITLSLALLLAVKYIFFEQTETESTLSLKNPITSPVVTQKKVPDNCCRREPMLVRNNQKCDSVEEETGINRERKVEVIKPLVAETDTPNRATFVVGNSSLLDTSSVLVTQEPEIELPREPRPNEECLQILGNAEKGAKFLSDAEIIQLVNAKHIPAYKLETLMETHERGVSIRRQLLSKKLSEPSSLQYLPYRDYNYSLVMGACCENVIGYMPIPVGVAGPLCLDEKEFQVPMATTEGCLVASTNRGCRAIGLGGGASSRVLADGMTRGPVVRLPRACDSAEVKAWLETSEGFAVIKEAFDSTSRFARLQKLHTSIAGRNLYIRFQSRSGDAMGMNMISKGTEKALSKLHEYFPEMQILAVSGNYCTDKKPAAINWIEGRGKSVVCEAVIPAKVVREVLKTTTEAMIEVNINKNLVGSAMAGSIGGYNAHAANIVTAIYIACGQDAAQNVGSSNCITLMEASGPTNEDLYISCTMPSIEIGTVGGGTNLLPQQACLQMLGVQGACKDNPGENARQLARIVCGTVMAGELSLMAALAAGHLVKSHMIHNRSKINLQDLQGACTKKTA
The subject of series [9] is A549 human lung cancer cells. In words: Cell proliferation (MTT) assay, cancer cells. As to conditions: for cell viability of A549 (in words): MTT, FIG. 4A/4D.
Description: as §4, §5, §6
In series [10] the test system is AOM/DSS-induced colitis-associated colorectal cancer. In words: AOM/DSS colitis-associated colorectal cancer model, treatment after AOM/DSS. The settings on record: for AOM/DSS-induced weight loss / clinical symptoms: oral 100 mg/kg, 5 days a week for 3 weeks after AOM/DSS; for histological examination of colon: treatment after AOM/DSS.
Description: Lova-HA and Atorva-HA were dissolved in corn oil. Lova-HA (100 mg/kg), Atorva-HA (100 mg/kg) or the vehicle (corn oil) was orally administered after AOM/DSS treatment 5 days a week for 3 weeks. All mice were sacrificed after 12 weeks and colon segments were fixed in formalin.
To further investigate whether Lova-HA and Atorva-HA can treat cancer, a C57/BL6 mouse model of colitis-associated CRC was performed after the AOM and 3 cycles of DSS treatment. […] The formation of polyps and colonic tumors were macroscopically observed and counted.
Series [11] has the same test system. The series can be described thus: AOM/DSS colitis-associated colorectal cancer model, chemoprevention.
Excerpt: All mice were sacrificed at 9 weeks and colon segments were fixed by formalin.
Male C57BL6 mice obtained at 4-5 weeks of age were divided into four groups. […] All mice were sacrificed after 9 weeks and colon segments were fixed in formalin. H&E stain colonic sections were examined for colonic aberrant crypts.
The formation of polyps and colonic tumors were macroscopically observed and counted.
Where [12] appears, read: Homo sapiens, A549, 72 h, read-out: IC50 (μM) A549, 72 h, MTT assay.

Several values for one entry are separate records, joined by “and”; a condition that tells them apart may be missing. Equal values may be shown once. Read-outs that look alike come from different tables or passages of the source.

Sequence of HDAC1 (Q13547 whole entry): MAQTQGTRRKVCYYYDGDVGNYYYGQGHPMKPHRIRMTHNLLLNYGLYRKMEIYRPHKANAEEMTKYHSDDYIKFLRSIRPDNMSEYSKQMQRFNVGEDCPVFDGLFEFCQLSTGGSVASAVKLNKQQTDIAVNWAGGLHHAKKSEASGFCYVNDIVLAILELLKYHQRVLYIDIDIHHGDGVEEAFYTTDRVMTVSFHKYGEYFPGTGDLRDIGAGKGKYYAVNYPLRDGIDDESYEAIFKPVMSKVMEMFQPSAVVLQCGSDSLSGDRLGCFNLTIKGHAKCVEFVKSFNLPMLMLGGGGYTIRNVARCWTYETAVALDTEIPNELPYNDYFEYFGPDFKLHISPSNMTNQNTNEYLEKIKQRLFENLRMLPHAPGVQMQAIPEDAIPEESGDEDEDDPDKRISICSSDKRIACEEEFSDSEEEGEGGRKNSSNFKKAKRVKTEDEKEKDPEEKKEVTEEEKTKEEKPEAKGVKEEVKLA
Sequence of HDAC6 (Q9UBN7 whole entry): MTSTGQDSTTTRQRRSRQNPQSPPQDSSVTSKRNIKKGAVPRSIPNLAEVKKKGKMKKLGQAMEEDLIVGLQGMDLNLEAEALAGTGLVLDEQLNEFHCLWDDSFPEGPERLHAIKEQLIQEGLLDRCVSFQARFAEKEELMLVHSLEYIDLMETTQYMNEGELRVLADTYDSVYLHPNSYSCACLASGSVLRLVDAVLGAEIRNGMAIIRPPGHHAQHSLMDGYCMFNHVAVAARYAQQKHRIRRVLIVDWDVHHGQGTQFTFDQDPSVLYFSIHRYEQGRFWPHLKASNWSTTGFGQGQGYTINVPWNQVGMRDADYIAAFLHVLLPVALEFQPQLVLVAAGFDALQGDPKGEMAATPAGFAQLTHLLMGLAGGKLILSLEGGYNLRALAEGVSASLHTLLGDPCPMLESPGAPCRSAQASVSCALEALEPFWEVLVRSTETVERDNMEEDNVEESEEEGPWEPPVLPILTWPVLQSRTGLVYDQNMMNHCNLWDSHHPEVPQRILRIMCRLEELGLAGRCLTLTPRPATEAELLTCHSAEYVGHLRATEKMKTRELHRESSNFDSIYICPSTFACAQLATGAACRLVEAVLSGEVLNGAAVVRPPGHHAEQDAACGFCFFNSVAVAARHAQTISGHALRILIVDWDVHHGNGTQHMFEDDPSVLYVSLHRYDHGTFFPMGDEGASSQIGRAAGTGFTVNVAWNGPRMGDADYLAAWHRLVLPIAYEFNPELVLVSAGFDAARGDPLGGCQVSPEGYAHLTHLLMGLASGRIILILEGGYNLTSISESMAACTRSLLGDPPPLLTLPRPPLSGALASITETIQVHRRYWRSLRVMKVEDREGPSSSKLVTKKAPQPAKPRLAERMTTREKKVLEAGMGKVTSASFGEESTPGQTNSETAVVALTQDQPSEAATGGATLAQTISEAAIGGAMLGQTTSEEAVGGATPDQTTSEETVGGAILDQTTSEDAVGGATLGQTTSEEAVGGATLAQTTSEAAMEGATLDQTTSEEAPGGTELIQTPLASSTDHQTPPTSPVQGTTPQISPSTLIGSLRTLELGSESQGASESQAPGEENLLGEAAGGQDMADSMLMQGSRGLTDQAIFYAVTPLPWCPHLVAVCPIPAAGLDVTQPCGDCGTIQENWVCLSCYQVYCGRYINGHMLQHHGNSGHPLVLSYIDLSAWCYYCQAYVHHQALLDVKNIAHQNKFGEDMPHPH

Turning to `CC(C)c1c(C(=O)Nc2ccccc2)c(-c2ccccc2)c(-c2ccc(F)cc2)n1CC[C@@H](O)C[C@@H](O)CC(=O)NO` [Atorva-HA, (3R,5R)-7-[2-(4-Fluoro-phenyl)-5-isopropyl-3-phenyl-4-phenylcarbamoylpyrrol-1-yl]-3,5-dihydroxy-N-hydroxyheptanamide], the “HMGR inhibition (in words)” value in [1] is “potent HMGR inhibition”. In addition, the IC50 in [1] is 9.2 nM; in [2], 117 nM; in series [3], 83.7 nM; in series [4], 467 ± 19 nM; in [5] (Mus musculus, Fibroblast) it was above 100 µM; in [6] (Homo sapiens, Hs68) it was above 100 µM. Moreover, the IC50 in series [9] (setting [12]) is below 20 µM; in series [9] (read-out: IC50 (μM) A549, 72 h, MTT assay, listed as Atorva-HA (5)) it was 17.5 ± 4.7 µM. Besides, the “cytotoxicity on MEF normal cells (in words)” value in series [5] was “did not have cytotoxicity”. Moreover, the “toxicity to normal cells at 100 μM” value in series [5] and in series [6] was “not toxic” each time. Also, in series [5], the “SI A549/MEF (selectivity index)” value is given as above 5.7. Besides, in series [6], the “cytotoxicity on HS68 normal cells (in words)” value was “did not have cytotoxicity”. Besides, the “acetylation of histone H3 and tubulin” value in series [7] was “promoted the acetylations of histone and tubulin”. The “HMGR inhibition in cell lysates compared with lovastatin” value in series [8] was “equal or even better activity than lovastatin”. The “cell viability of A549 (in words)” value in [9] (72 h) is “reduced”. Also, the “number and size of tumors” value in series [10] (100 mg/kg oral) is “markedly reduced the number and size of tumors”. In addition, in series [10], the AOM/DSS-induced weight loss result is listed as “could protect the weight loss”. In addition, the clinical symptoms entry in series [10] was “attenuated”. Besides, the “histological examination of colon” value in series [10] is listed as “surface tumor necrosis”.
For the molecule `CC(C)c1c(C(=O)Nc2ccccc2)c(-c2ccccc2)c(-c2ccc(F)cc2)n1CC[C@@H](O)C[C@@H](O)CC(=O)O` [Atorvastatin, atorvastatin], the IC50 in series [5] (Mus musculus, Fibroblast) is 30.7 ± 3.2 µM. In addition, in [10], the AOM/DSS-induced weight loss result is reported as “could not protect”, the clinical symptoms entry is recorded as “not reversed” and the “histological examination of colon” value is listed as “adenocarcinomas with dysplasia”.
Consider `CCC(C)C(=O)O[C@H]1C[C@@H](C)C=C2C=C[C@H](C)[C@H](CC[C@@H](O)C[C@@H](O)CC(=O)NO)[C@H]21` (some centres unmarked) [Lova-HA], for which the IC50 in series [1] was 16.8 ± 1.9 nM; in [2], 60.1 ± 5.3 nM; in series [3] it was 50.5 ± 4 nM; in series [4] it was 468 ± 27.2 nM; in [5] (Mus musculus, Fibroblast) it was above 100 µM; in series [6] (Homo sapiens, Hs68) it was above 100 µM. Also, the IC50 in series [9] (setting [12]) is below 20 µM; in series [9] (read-out: IC50 (μM) A549, 72 h, MTT assay, listed as Lova-HA (1)), 18.2 ± 3.4 µM. Besides, in [5], the “cytotoxicity on MEF normal cells (in words)” value was “did not have cytotoxicity”. For the same molecule, the “toxicity to normal cells at 100 μM” value in [5] and in series [6] was “not toxic” each time. In [5], the “SI A549/MEF (selectivity index)” value is on record as above 5.6. Also, the “cytotoxicity on HS68 normal cells (in words)” value in [6] was “did not have cytotoxicity”. Also, the colon length in series [11] (25 mg/kg oral) worked out at 8.6±0.4 cm; in series [11] (50 mg/kg oral) it was 10.1±0.9 cm.
Regarding `CC[C@H](C)C(=O)O[C@H]1C[C@@H](C)C=C2C=C[C@H](C)[C@H](CC[C@@H]3C[C@@H](O)CC(=O)O3)[C@H]21` [Lovastatin, lovastatin], the concentration for half-maximal inhibition (IC50) in series [5] was found to be 35 ± 5.9 µM. Moreover, in [6], it took 23.2 ± 3.5 µM to reach half-maximal inhibition (IC50). Also, in series [11] (50 mg/kg oral), the colon length is 8.0±0.9 cm and the “histological examination of colon” value is “adenocarcinomas with dysplasia”. Also, the “bleeding and diarrhea (clinical symptoms)” value in series [11] (oral, Lova-HA 25 or 50 mg/kg, lovastatin 50 mg/kg) was “not reversed”. Further, in series [11] (oral, Lova-HA 25 or 50 mg/kg, lovastatin 50 mg/kg, 5 days a week for 8 weeks), the “body weight loss after AOM/DSS” value is “but not lovastatin could protect the weight loss”. For the same molecule, in [10], the AOM/DSS-induced weight loss result is “could not protect”, the clinical symptoms entry was “not reversed” and the “histological examination of colon” value is “adenocarcinomas with dysplasia”.
`CC(C)c1nc(N(C)S(C)(=O)=O)nc(-c2ccc(F)cc2)c1/C=C/[C@@H](O)C[C@@H](O)CC(=O)NO` [Rosuva-HA, (3R,5S,6E)-7-[4-(4-fluorophenyl)-2-(N-methylmethanesulfonamido)-6-isopropylpyrimidin-5-yl]-3,5-dihydroxy-N-hydroxy-6-heptenamide]: in series [1], the “HMGR inhibition (in words)” value is recorded as “potent HMGR inhibition”. Also, the IC50 in [1] was 43.7 ± 1.6 nM; in [2], 125 ± 7.1 nM; in series [3] it was 133 ± 5.5 nM; in series [4], 400 to 630 nM and 600 nM. The “acetylation of histone H3 and tubulin” value in series [7] was “promoted the acetylations of histone and tubulin”.
For `O=C(CCCCCCC(=O)Nc1ccccc1)NO` [SAHA, suberoylanalide hydroxamic acid, reference compound], in [1], the “HMGR inhibition (in words)” value is “no significant inhibition” and the IC50 was above 10000 nM. The “cytotoxicity on MEF normal cells (in words)” value in [5] is recorded as “toxic to normal cells”. Besides, the “cytotoxicity on HS68 normal cells (in words)” value in series [6] was “toxic to normal cells”. In series [9] (72 h), the “cell viability of A549 (in words)” value is given as “killed cancer cells”. Further, in series [10], the AOM/DSS-induced weight loss entry is on record as “could not protect”, the clinical symptoms entry is reported as “attenuated” and the “histological examination of colon” value is reported as “surface tumor necrosis”.
For the molecule `CCC(C)(C)C(=O)O[C@H]1C[C@@H](C)C=C2C=C[C@H](C)[C@H](CC[C@@H](O)C[C@@H](O)CC(=O)NO)[C@H]21` [Simva-HA, (3R,5R)-7-{(1S,2S,6R,8S,8aR)-Hexahydro-2,6-dimethyl-8-[2-dimethylbutyryloxy]naphthalenyl}-3,5-dihydroxy-N-hydroxyheptanamide], the IC50 in series [1] is 11.4 nM; in series [2] it was 60.7 ± 3.2 nM; in [3] it was 67.1 nM; in [4], 400 to 630 nM; in [5] (Mus musculus, Fibroblast), above 100 µM; in series [6] (Homo sapiens, Hs68), above 100 µM. The IC50 was below 20 µM in series [9] (setting [12]) and 20 ± 3.1 µM in [9] (read-out: IC50 (μM) A549, 72 h, MTT assay, listed as Simva-HA (2)). In series [5], the “cytotoxicity on MEF normal cells (in words)” value is “did not have cytotoxicity”. In addition, the “toxicity to normal cells at 100 μM” value in series [5] and in series [6] was “not toxic” in each case. Besides, in series [5], the “SI A549/MEF (selectivity index)” value was above 5.0. Besides, the “cytotoxicity on HS68 normal cells (in words)” value in series [6] is listed as “did not have cytotoxicity”.
On to `CCC(C)(C)C(=O)O[C@H]1C[C@@H](C)C=C2C=C[C@H](C)[C@H](CC[C@@H]3C[C@@H](O)CC(=O)O3)[C@H]21` [simvastatin, reference compound], for which the IC50 in series [5] (Mus musculus, Fibroblast) was 36.7 ± 4.4 µM; in series [6] (Homo sapiens, Hs68) it was 26.4 ± 2.1 µM; in [9] (Homo sapiens, A549, 72 h, read-out: IC50 (μM) A549) it was 16.3 ± 0.1 µM. In addition, in [5], the “SI A549/MEF (selectivity index)” value is recorded as 2.3.
